The results in this text go back to US20110009435A1, “HETERO BICYCLIC CARBOXAMIDE DERIVATIVES AND THEIR PHARMACEUTICAL USE AND COMPOSITIONS” (Pfizer, Inc., priority 2007, published 2011).

Assay type in all cases: biochemical
One assay addresses T1, Human recombinant MMP-14 (Homo sapiens, UniProt P50281).
T1 construct: The MMP-14 cDNA may be used to express the catalytic domain enzyme in E. coli inclusion bodies; made in house
The assay is described as follows: In vitro MMP inhibition assay, MMP-14 catalytic domain (fluorogenic peptide substrate cleavage, Ki). To be noted: human MMP-14, catalytic domain (CD); read-out: hMMP Ki 14/CD. Here is the method:
(§1) Matrix Metalloproteinase inhibitor compounds were analyzed in in vitro MMP Inhibition assays to determine their ability to inhibit the MMP cleavage of peptide substrates. Inhibition constants (Ki) were calculated from the assayed compound-MMP interactions.
(§2) Human recombinant MMP-1, MMP-2, MMP-3, MMP-7, MMP-9, MMP-12, MMP-13, MMP-14 and MMP-15 were used in these assays. The enzymes are prepared following known laboratory procedures. Protocols for the preparation and use of these enzymes are available in the scientific literature. See, e.g., Enzyme Nomenclature (Academic Press, San Diego, Calif., 1992) and the citations therein. See also Frije et al., J. Biol. Chem., 26(24), 16766-73 (1994).
The MMP-14 cDNA may be used to express the catalytic domain enzyme in E. coli inclusion bodies. Then the enzyme is solubilized in urea, purified on a preparative […] reverse phase HPLC column, and refolded in the presence of zinc acetate and purified for use.
(§3) The fluorogenic, methoxycoumarin-containing polypeptide substrate MCA-ArgProLeuGlyLeuDpaAlaArgGluArgNH2 was used as the MMP substrate in the MMP inhibition assays for human recombinant MMP-1, MMP-2, MMP-7, MMP-9, MMP-12, MMP-13, MMP-14 and MMP-15. Here, “MCA” is 7-methoxycoumarin-4-yl acetyl and “Dpa” is 3-(2,4-dinitrophenyl)-L-2,3-di-aminopropionyl group. In the absence of MMP inhibitory activity, the substrate is cleaved at the Gly-Leu peptide bond. The cleavage separates the highly fluorogenic peptide from the 2,4-dinitrophenyl quencher, resulting in an increase of fluorescent intensity.
(§4) For the human MMP-1, MMP-2, MMP-7, MMP-9, MMP-12, MMP-13, MMP-14 and MMP-15 assays, dilutions of the inhibitors (or salts thereof) were prepared in 100% dimethyl sulfoxide (DMSO). The stock solutions were diluted in Buffer A (100 mM Tris-HCl, 100 mM NaCl, 10 mM CaCl2, 0.005% polyoxyethylene 23 lauryl ether, pH 7.5) to obtain solutions with different compound concentrations, i.e., assay solutions with different concentrations of the assayed MMP inhibitory compound in 1% DMSO. The experiment controls contained the same amount of Buffer A/DMSO as the assayed sample, but contained no inhibitor.
(§5) To determine Ki, the inhibitor samples are incubated at room temperature for 1 hr in the presence of enzyme and then 4 μM of appropriate MMP substrate was added, and samples were analyzed on a Tecan SpectraFlour Plus plate reader. The excitation wavelength is 330 nm, and the emission (fluorescence) wavelength is 420 nm. In the absence of MMP inhibitory activity, the substrate is cleaved at the Gly-Leu bond resulting in an increase of relative fluorescence. Inhibition is observed as a reduced rate of increase in relative fluorescence.
The inhibitors are analyzed using a single low enzyme concentration with a single substrate concentration fixed at or below the Km. This protocol is a modification of method by Knight et al., FEBS Lett., 296(3), 263-266 (1992). Apparent inhibitory constants are determined by non-linear regression of reaction velocity as a function of inhibitor and enzyme concentration using Morrison's equation, as described by Kuzmic, Anal. Biochem. 286, 45-50 (2000). Modifications were made in the non-linear regression method to allow a common control reaction rate and effective enzyme concentration to be shared between all dose-response relationships on a given assay plate. […]

The target in the next assay is T2, Human recombinant MMP-15 (Homo sapiens, UniProt P51511).
T2 construct: The catalytic domain of MMP-12 and MMP-15 enzymes were purchased commercially for these assays; purchased
T2 sequence (P51511 132-304 limits assumed): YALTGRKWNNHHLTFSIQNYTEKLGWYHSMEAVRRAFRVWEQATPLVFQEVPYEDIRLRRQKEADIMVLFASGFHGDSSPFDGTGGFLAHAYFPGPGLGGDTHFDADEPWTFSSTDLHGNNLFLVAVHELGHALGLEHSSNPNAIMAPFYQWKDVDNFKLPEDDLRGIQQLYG
The assay is described as follows: In vitro MMP inhibition assay, MMP-15 catalytic domain (fluorogenic peptide substrate cleavage, Ki). To be noted: human MMP-15, catalytic domain (CD); read-out: hMMP Ki 15/CD. Here is the method:
as §1, §2
(§6) The catalytic domain of MMP-12 and MMP-15 enzymes were purchased commercially for these assays.
as §3, §4, §5
(§7) The inhibitors are analyzed using a single low enzyme concentration with a single substrate concentration fixed at or below the Km. This protocol is a modification of method by Knight et al., FEBS Lett., 296(3), 263-266 (1992). Apparent inhibitory constants are determined by non-linear regression of reaction velocity as a function of inhibitor and enzyme concentration using Morrison's equation, as described by Kuzmic, Anal. Biochem. 286, 45-50 (2000). Modifications were made in the non-linear regression method to allow a common control reaction rate and effective enzyme concentration to be shared between all dose-response relationships on a given assay plate. Since the substrate concentration was chosen to be at or below the Km, the apparent Ki's from this analysis were reported as Ki's without correction for the influence of substrate.

Assay [1] addresses T3, catalytic domain of human recombinant MMP-3 (Homo sapiens, UniProt P08254).
T3 construct: made in house
The assay is described as follows: In vitro MMP inhibition assay, MMP-3 catalytic domain (fluorogenic peptide substrate cleavage, Ki). To be noted: human MMP-3, catalytic domain (CD); read-out: hMMP Ki 03/CD. The protocol: as §1, §2
The catalytic domain MMP-3 cDNA may be used to express the catalytic domain enzyme in E. coli inclusion bodies. Then the enzyme is solubilized in urea, purified on a preparative […] reverse phase HPLC column, and refolded in the presence of zinc acetate and purified for use.
The fluorogenic, methoxycoumarin-containing polypeptide substrate Mca-Arg-Pro-Lys-Pro-Val-Glu-Nva-Trp-Arg-Lys(Dnp)-NH2 (Bachem catalog number M-2110) was used as the MMP substrate in the MMP inhibition assays for catalytic domain of human recombinant MMP-3 (which refers to the catalytic domain of stromelysin). Here, “MCA” is 7-methoxycoumarin-4-yl acetyl and “Dpa” is 3-(2,4-dinitrophenyl)-L-2,3-di-aminopropionyl group. In the absence of MMP inhibitory activity, the substrate is cleaved at the Gly-Leu peptide bond. The cleavage separates the highly fluorogenic peptide from the 2,4-dinitrophenyl quencher, resulting in an increase of fluorescent intensity.
For the human MMP-3 assay, dilutions of the inhibitors (or salts thereof) were prepared in 100% DMSO. The stock solutions were diluted in Buffer B (50 mM N-morpholinoethane sulfonate (“MES”), 100 mM NaCl, 10 mM CaCl2, 0.005% polyoxyethylene 23 lauryl ether, pH 6.0)) to obtain solutions with different compound concentrations, i.e., assay solutions with different concentrations of the assayed MMP inhibitory compound in 1% DMSO. The experiment controls contained the same amount of Buffer B/DMSO as the assayed sample, but contained no inhibitor.
as §5, §7

The target in another assay is T4, Human recombinant MMP-12 (Homo sapiens, UniProt P39900).
T4 construct: The catalytic domain of MMP-12 and MMP-15 enzymes were purchased commercially for these assays; purchased
T4 sequence (P39900 106-263 limits assumed): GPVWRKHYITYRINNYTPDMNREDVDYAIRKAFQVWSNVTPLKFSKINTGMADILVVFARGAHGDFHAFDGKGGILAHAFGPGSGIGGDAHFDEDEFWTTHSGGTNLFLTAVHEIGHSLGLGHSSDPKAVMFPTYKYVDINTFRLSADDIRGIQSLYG
The assay can be described thus: In vitro MMP inhibition assay, MMP-12 catalytic domain (fluorogenic peptide substrate cleavage, Ki). To be noted: human MMP-12, catalytic domain (CD); read-out: hMMP Ki 12/CD. Here is the method: as §1, §2, §6, §3, §4, §5, §7

The target of a further assay is T5, Human recombinant MMP-13 (Homo sapiens, UniProt P45452).
T5 construct: made in house; host or cells: baculovirus expression (insect cells)
The assay can be described thus: In vitro MMP inhibition assay, MMP-13 (fluorogenic peptide substrate cleavage, Ki). To be noted: human MMP-13, full length (FL); read-out: hMMP Ki 13/FL. The protocol:
as §1, §2
The MMP-13 may be obtained as a proenzyme from a full-length cDNA clone using baculovirus expression, as described by V. A. Luckow, “Insect Cell Expression Technology,” Protein Engineering: Principles and Practice, pp. 183-218 (edited by J. L. Cleland et al., Wiley-Liss, Inc., 1996). The expressed proenzyme was first purified over a heparin agarose column, and then over a chelating zinc chloride column. Further details on baculovirus expression systems may be found in, for example, Luckow et al., J. Virol., 67, 4566-79 (1993). See also O'Reilly et al, Baculovirus Expression Vectors: A Laboratory Manual (W. H. Freeman and Co., New York, N.Y., 1992). See also King et al., The Baculovirus Expression System: A Laboratory Guide (Chapman & Hall, London, England, 1992).
All full length MMPs were activated using 4-aminophenylmercuric acetate (“APMA”, Sigma Chemical, St. Louis, Mo.) or trypsin. MMP-9 also was activated using human recombinant MMP-3 following standard cloning and purification techniques.
as §3, §4, §5
The inhibitors are analyzed using a single low enzyme concentration with a single substrate concentration fixed at or below the Km. This protocol is a modification of method by Knight et al., FEBS Lett., 296(3), 263-266 (1992). Apparent inhibitory constants are determined by non-linear regression of reaction velocity as a function of inhibitor and enzyme concentration using Morrison's equation, as described by Kuzmic, Anal. Biochem. 286, 45-50 (2000). […]

SMILES strings stand for the structures.

T3 sequence (P08254 100-272 limits assumed): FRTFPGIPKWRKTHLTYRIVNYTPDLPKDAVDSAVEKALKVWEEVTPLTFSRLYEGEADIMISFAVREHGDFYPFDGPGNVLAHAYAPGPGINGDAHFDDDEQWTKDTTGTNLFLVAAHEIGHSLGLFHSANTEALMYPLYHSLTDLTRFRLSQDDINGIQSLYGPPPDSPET

Consider `COc1cccc(CNC(=O)c2nc3scc(COC[C@@H]4CO[C@@H](CO)CO4)c3c(=O)[nH]2)c1` (relative stereo) [Example 7, N-(3-Methoxybenzyl)-5-(((trans-5-(hydroxymethyl)-1,4-dioxan-2-yl)methoxy)methyl)-4-oxo-3,4-dihydrothieno[2,3-d]pyrimidine-2-carboxamide], for which the Ki was > 10 µM at Human recombinant MMP-14; > 10 µM at Human recombinant MMP-15; 1640 nM in assay [1]; > 10 µM on Human recombinant MMP-12; 11.4 nM at Human recombinant MMP-13.
Regarding `COc1cc(CNC(=O)c2nc3scc(COC[C@H]4CC[C@H](CO)CC4)c3c(=O)[nH]2)ccc1F` [Example 9, N-(4-Fluoro-3-methoxybenzyl)-5-(((trans-4-(hydroxymethyl)cyclohexyl)methoxy)methyl)-4-oxo-3,4-dihydrothieno[2,3-d]pyrimidine-2-carboxamide], the Ki is > 10 µM on Human recombinant MMP-14; > 10 µM on Human recombinant MMP-15; 1350 nM in assay [1]; > 10 µM at Human recombinant MMP-12; 0.88 nM at Human recombinant MMP-13.
As to `COc1cc(CNC(=O)c2nc3scc(COC[C@H]4CC[C@H](NS(C)(=O)=O)CC4)c3c(=O)[nH]2)ccc1F` [Example 18, N-(4-Fluoro-3-methoxybenzyl)-5-[({trans-4-[(methylsulfonyl)amino]cyclohexyl}methoxy)methyl]-4-oxo-3,4-dihydrothieno[2,3-d]pyrimidine-2-carboxamide], the Ki on Human recombinant MMP-14 was > 10 µM; at Human recombinant MMP-15, > 10 µM; in assay [1] it was 1000 nM; at Human recombinant MMP-12, > 10 µM; on Human recombinant MMP-13, 0.732 nM.
On to `COc1cc(CNC(=O)c2nc3scc(COC[C@H]4CC[C@H](NC(C)=O)CC4)c3c(=O)[nH]2)ccc1F` [Example 19, 5-({[trans-4-(Acetylamino)cyclohexyl]methoxy}methyl)-N-(4-fluoro-3-methoxybenzyl)-4-oxo-3,4-dihydrothieno[2,3-d]pyrimidine-2-carboxamide], for which the Ki on Human recombinant MMP-14 is > 10 µM; at Human recombinant MMP-15, > 10 µM; in assay [1], 1220 nM; at Human recombinant MMP-12 it was > 10 µM; on Human recombinant MMP-13, 2.48 nM.
